For data set [1], the target named is T1, Human immunodeficiency virus type 1 reverse transcriptase (Human immunodeficiency virus 1, UniProt Q72547). The data set is described as follows: Inhibition of FLAG-p66/HIS-p51-mediated HIV1 reverse transcriptase dimerization.
Data set [2] concerns the target T1, Human immunodeficiency virus type 1 reverse transcriptase. The data set is described as follows: Inhibition of HIV1 reverse transcriptase RNA-dependent DNA polymerase activity.
Data set [3] relates to Human immunodeficiency virus 1. The data set is described as follows: Antiviral activity against HIV1 in MT4 cells. To be noted: Human immunodeficiency virus 1, MT4. The data set is classed as functional, organism-based.
A short description of data set [4]: Inhibition of MT4 cell viability. The class given is cell-based. Particulars: human, MT4 cells.

pEC50, pIC50: −log10 of the molar value. A value given as a limit tells only on which side of the number the result lay.

For orientation: pIC50 means the negative decadic logarithm of the IC50, by convention in mol/L. Higher therefore signals a small IC50. One may read the pEC50 as the EC50 on a negative log10 scale, so that one unit is a factor of ten. A higher pEC50 goes with a small EC50. What is called CC50 is the concentration that lowers cell viability or growth by half. Read a high CC50 as better tolerance by the cells. With `Cc1cn(C2OC(CO[Si](C)(C)C(C)(C)C)CC2O[Si](C)(C)C(C)(C)C)c(=O)n(CC(=O)O)c1=O` (stereo unspecified), the figures for the negative logarithm of the IC50 (pIC50) in data set [1] and in data set [2] were 5.96 and 5.24, respectively. The same compound gave a pEC50 in data set [3] of 5.19. For the same compound, the CC50 in data set [4] amounted to 17 µM.

Regarding `Cc1cn([C@@H]2O[C@H](CO[Si](C)(C)C(C)(C)C)[C@@]3(OS(=O)(=O)C=C3N)[C@H]2O[Si](C)(C)C(C)(C)C)c(=O)[nH]c1=O`, the figures for the pIC50 in data set [1] and in data set [2] were 5.17 and 6.00, respectively. The same compound gave a negative-log EC50 (pEC50) in data set [3] of 7.22. The CC50 in data set [4] turned out to be 14 µM.

Regarding `CCc1cn([C@@H]2O[C@H](CO[Si](C)(C)C(C)(C)C)[C@@]3(OS(=O)(=O)C=C3N)[C@H]2O[Si](C)(C)C(C)(C)C)c(=O)[nH]c1=O`, the pIC50 in data set [1] is 5.07; in data set [2], 5.47. In data set [3], this compound showed a pEC50 of 7.22. Moreover, the midpoint of cytotoxicity in data set [4], the CC50, lay at 20 µM.

Consider `Cc1cn([C@@H]2O[C@H](CO[Si](C)(C)C(C)(C)C)[C@@]3(OS(=O)(=O)C=C3N)[C@H]2O[Si](C)(C)C(C)(C)C)c(=O)n(C)c1=O`, for which the pIC50 is 5.24 in data set [1] and 5.89 in data set [2]. This compound also showed a pEC50 in data set [3] of 7.22. Half-maximal cytotoxicity in data set [4] (CC50) was put at 240 µM.

Regarding `Cc1cn([C@@H]2O[C@H](CO[Si](C)(C)C(C)(C)C)[C@@]3(OS(=O)(=O)C(I)=C3N)[C@H]2O[Si](C)(C)C(C)(C)C)c(=O)[nH]c1=O`, the negative logarithm of the IC50 (pIC50) was 5.46 in data set [1] and 5.10 in data set [2]. This compound showed a pEC50 in data set [3] of 6.92. This compound showed a half-maximal cytotoxic concentration (CC50) in data set [4] of 4 µM.

Consider `Cc1cn([C@@H]2O[C@H](CO[Si](C)(C)C(C)(C)C)[C@@]3(OS(=O)(=O)C=C3N)[C@H]2O[Si](C)(C)C(C)(C)C)c(=O)n(CC2CO2)c1=O` (stereo partly specified), for which the negative logarithm of the IC50 (pIC50) was 5.30 in data set [1] and 5.62 in data set [2]. In data set [3], this compound gave a pEC50 of 6.96. The compound also gave a 50% cytotoxic concentration (CC50) in data set [4] of 56 µM.

On to `Cc1cn([C@@H]2O[C@H](CO[Si](C)(C)C(C)(C)C)[C@@]3(OS(=O)(=O)C=C3N=C(N)N)[C@H]2O[Si](C)(C)C(C)(C)C)c(=O)[nH]c1=O`, for which the pIC50 is 4.85 in data set [1] and 5.42 in data set [2]. The same compound showed a negative-log EC50 (pEC50) in data set [3] of 6.02. The compound also gave a 50% cytotoxic concentration (CC50) in data set [4] of 87 µM.

Turning to `Cc1cn([C@@H]2O[C@H](CO[Si](C)(C)C(C)(C)C)[C@@]3(OS(=O)(=O)C=C3N)[C@H]2O[Si](C)(C)C(C)(C)C)c(=O)n(/C=C/CO)c1=O`, the negative logarithm of the IC50 (pIC50) in data set [1] was 5.72; in data set [2], 6.30. The compound also gave a pEC50 in data set [3] of 7.40. It took 4 µM to reach half-maximal cytotoxicity in data set [4] (CC50).

Regarding `CN(C)C(=O)c1cnnn1[C@@H]1O[C@H](CO[Si](C)(C)C(C)(C)C)[C@@]2(OS(=O)(=O)C=C2N)[C@H]1O[Si](C)(C)C(C)(C)C`, the pIC50 in data set [1] is 4.93; in data set [2], 5.19. In data set [3], the negative logarithm of the EC50 (pEC50) is 7.40. The CC50 in data set [4] was 12 µM.

For the compound `Cc1cn([C@@H]2O[C@H](CO[Si](C)(C)C(C)(C)C)[C@@]3(OS(=O)(=O)C=C3N)[C@H]2O[Si](C)(C)C(C)(C)C)c(=O)n(CCc2ccccc2)c1=O`, the negative-log IC50 (pIC50) was 5.52 in data set [1] and 6.10 in data set [2]. The pEC50 in data set [3] is 6.08. Half-maximal cytotoxicity in data set [4] (CC50) was put at 2 µM.

For the compound `Cc1cn([C@@H]2O[C@H](CO[Si](C)(C)C(C)(C)C)[C@@]3(OS(=O)(=O)C=C3N)[C@H]2O[Si](C)(C)C(C)(C)C)c(=O)n(CC(=O)N[C@@H](CC(=O)O)C(=O)O)c1=O`, the pIC50 is 4.92 in data set [1] and 5.04 in data set [2]. In data set [3], this compound gave a negative-log EC50 (pEC50) of 5.20. In addition, in data set [4], the half-maximal cytotoxic concentration (CC50) is > 250 µM.

`CNC(=O)CCCCn1c(=O)c(C)cn([C@@H]2O[C@H](CO[Si](C)(C)C(C)(C)C)[C@@]3(OS(=O)(=O)C=C3N)[C@H]2O[Si](C)(C)C(C)(C)C)c1=O`: the pIC50 in data set [1] is 5.17; in data set [2], 5.49. The compound further showed a pEC50 in data set [3] of 7.30. In addition, the CC50 in data set [4] was > 250 µM.

For `Cc1cn([C@@H]2O[C@H](CO[Si](C)(C)C(C)(C)C)[C@@H](O)[C@H]2O[Si](C)(C)C(C)(C)C)c(=O)n(CC(=O)O)c1=O`, the pIC50 in data set [1] and in data set [2] was 5.18 each time. This compound also gave a pEC50 in data set [3] of 5.27. The CC50 in data set [4] is 19 µM.

As for `Cc1cn([C@@H]2O[C@H](CO[Si](C)(C)C(C)(C)C)[C@@]3(OS(=O)(=O)C=C3N)[C@H]2O[Si](C)(C)C(C)(C)C)c(=O)n(CCCN(CC(=O)O)CC(=O)O)c1=O`, the results for the pIC50 in data set [1] and in data set [2] were 5.28 and 4.97, respectively. Further, the pEC50 in data set [3] was 5.08. In data set [4], this compound yielded a CC50 of 123 µM.

`Cc1cn([C@@H]2O[C@H](CO[Si](C)(C)C(C)(C)C)[C@@]3(OS(=O)(=O)C=C3N)[C@H]2O[Si](C)(C)C(C)(C)C)c(=O)n(/C=C\CO)c1=O`: the pIC50 in data set [1] was 5.51; in data set [2] it was 5.80. Moreover, the negative-log EC50 (pEC50) in data set [3] is 6.49. The same compound had a CC50 in data set [4] of 36 µM.

Regarding `Cc1cn([C@@H]2O[C@H](CO[Si](C)(C)C(C)(C)C)[C@@]3(OS(=O)(=O)C(/C=C/CO)=C3N)[C@H]2O[Si](C)(C)C(C)(C)C)c(=O)[nH]c1=O`, the pIC50 in data set [1] was 4.80; in data set [2], 5.32. The compound also gave a negative-log EC50 (pEC50) in data set [3] of 5.18. This compound yielded a cytotoxic concentration (CC50) in data set [4] of 17 µM.

As for `COC(=O)C(=O)NC1=CS(=O)(=O)O[C@@]12[C@@H](COCc1ccccc1)O[C@@H](n1cc(C)c(=O)n(C)c1=O)[C@@H]2O[Si](C)(C)C(C)(C)C`, the pIC50 in data set [1] is 5.14; in data set [2] it was 5.27. Moreover, in data set [3], the negative logarithm of the EC50 (pEC50) is 5.35. Also, the cytotoxic concentration (CC50) in data set [4] was 4 µM.

Take `Cc1cn([C@@H]2O[C@H](CO[Si](C)(C)C(C)(C)C)[C@@]3(OS(=O)(=O)C=C3N)[C@H]2O[Si](C)(C)C(C)(C)C)c(=O)n(CC(N)=O)c1=O`: the figures for the negative logarithm of the IC50 (pIC50) in data set [1] and in data set [2] were 5.15 and 5.77, respectively. The same compound had a negative logarithm of the EC50 (pEC50) in data set [3] of 7.15. In addition, the CC50 in data set [4] was found to be 18 µM.

In the case of `Cc1cn([C@@H]2O[C@H](CO[Si](C)(C)C(C)(C)C)[C@@]3(OS(=O)(=O)C=C3N)[C@H]2O[Si](C)(C)C(C)(C)C)c(=O)n(CC(=O)O)c1=O`, the negative-log IC50 (pIC50) in data set [1] was 5.26; in data set [2], 5.49. In data set [3], this compound had a pEC50 of 5.21. The half-maximal cytotoxic concentration (CC50) in data set [4] was > 155 µM.

On to `Cc1cn([C@@H]2O[C@H](CO[Si](C)(C)C(C)(C)C)[C@@]3(OS(=O)(=O)C=C3N)[C@H]2O[Si](C)(C)C(C)(C)C)c(=O)n(CC(=O)N[C@@H](C)C(=O)O)c1=O`, for which the pIC50 in data set [1] was 4.92; in data set [2], 5.51. Further, in data set [3], the negative-log EC50 (pEC50) is 5.24. Besides, the CC50 in data set [4] is > 250 µM.

Turning to `Cc1cn([C@@H]2O[C@H](CO[Si](C)(C)C(C)(C)C)[C@@]3(OS(=O)(=O)C=C3N)[C@H]2O[Si](C)(C)C(C)(C)C)c(=O)n(CCCN)c1=O`, the pIC50 in data set [1] is 5.14; in data set [2] it was 5.36. This compound also showed a pEC50 in data set [3] of 6.28. The same compound gave a CC50 in data set [4] of 14 µM.

Take `CCCn1c(=O)c(C)cn([C@@H]2O[C@H](CO[Si](C)(C)C(C)(C)C)[C@@]3(OS(=O)(=O)C=C3N)[C@H]2O[Si](C)(C)C(C)(C)C)c1=O`: the negative-log IC50 (pIC50) was 5.37 in data set [1] and 6.30 in data set [2]. Also, the pEC50 in data set [3] is 6.59. The compound also yielded a CC50 in data set [4] of 75 µM.

In the case of `Cc1cn([C@@H]2O[C@H](CO[Si](C)(C)C(C)(C)C)[C@@]3(OS(=O)(=O)C=C3N)[C@H]2O[Si](C)(C)C(C)(C)C)c(=O)n(CCCO)c1=O`, the pIC50 in data set [1] was 5.80; in data set [2] it was 6.15. Moreover, in data set [3], the pEC50 is 7.52. In data set [4], this compound showed a CC50 of 4 µM.

Turning to `CC(C)(C)[Si](C)(C)OC[C@H]1O[C@@H](n2nncc2C(N)=O)[C@H](O[Si](C)(C)C(C)(C)C)[C@]12OS(=O)(=O)C=C2N`, the pIC50 was 5.00 in data set [1] and 5.08 in data set [2]. The same compound showed a pEC50 in data set [3] of 6.28. Moreover, the midpoint of cytotoxicity in data set [4], the CC50, lay at 15 µM.

Values taken from ChEMBL document CHEMBL1138970, “Structure-activity relationships of [2',5'-bis-O-(tert-butyldimethylsilyl)-beta-D-ribofuranosyl]- 3'-spiro-5' '-(4' '-amino-1' ',2' '-oxathiole-2' ',2' '-dioxide)thymine derivatives as inhibitors of HIV-1 reverse transcriptase dimerization” (J Med Chem, 2006).
